The subject of data set [1] is GCase. The data set can be described thus: Total GCase activity in the spinal cord after CBE treatment. The format is in vivo, mice. The settings on record: CBE 10 mg/kg/day, intraperitoneal.
Data set [2] has as its system SOD1 mice. The data set can be described thus: SOD1(G86R) mice, animal model of ALS: disease onset, motor function, motor unit histology, survival. The class given is in vivo. How it is done: Ambroxol was given orally in the drinking water. […] Non-transgenic littermates served as controls. […] Average speed, paw swing and stride length were measured. […] Non-transgenic littermates served as controls.
Spinal cord: Lumbar spinal cord fixed in paraformaldehyde 4% were used for studying the distribution of GM1a around motor neurons. Coronal section 40 μm thick were realized with a vibratome and were stained with an anti-[…] (1/100, Millipore, France) and an alexa594 conjugated goat (1/200, Jackson) antibodies. GM1a was detected with the cholera toxin sub-unit beta coupled with an Allexa488 dye (1/200, ThermoFisher). Fluorescence intensity of GM1a was calculated with an image processing program (ImageJ). For motor neuron couting, all neurons located in the ventral horn, that were >400 μm^2 in size and ChAT positive were considered as alpha motor neurons. Six sections of spinal cord that were apart over a length of 0.24 mm were counted.
Muscle bundles: Tibialis anterior muscles fixed in paraformaldehyde 4% were dissected into bundles under a binocular microscope. Bundles were collected from at least three different parts of the muscle. Acetylcholine receptors in the postsynaptic apparatus of neuromuscular junctions were labeled with rhodamine-conjugated α-bungarotoxin (Sigma-Aldrich). Immunofluorescent labeling of nerve terminals was performed with a rabbit polyclonal anti-synaptophysin antibody diluted 1/200 (Abcam, Cambridge, UK), and Alexa conjugated goat anti-rabbit diluted 1/500 (Jackson). Neuromuscular junction integrity was assessed by studying the colocalization of synaptophysin and bungarotoxin signal. […].
Coronal muscle sections: Twenty-micrometer sections were obtained by cutting isopentane fresh-frozen tibialis anterior muscles perpendicular to the muscle axis with a cryostat at −20° C. (Leica, Nanterre, France). Acetylcholine receptors in the postsynaptic apparatus of neuromuscular junctions were labeled with rhodamine-conjugated α-bungarotoxin (Sigma-Aldrich). GM1a distribution was labeled with the cholera toxin sub-unit beta coupled with an Allexa488 dye (1/200, ThermoFisher).

Data set [3] relates to non-transgenic mice. In words: Sciatic nerve injury (crush) in non-transgenic mice: functional recovery and re-innervation. The class given is in vivo. Here is the method:
Sciatic Nerve Injury: Peripheral nerve injury was performed in order to induce muscle denervation and axonal regeneration. Non-transgenic mice were anesthetized with ketamine chlorohydrate (100 mg/kg) and xylazine (5 mg/kg). The sciatic nerve was exposed at mid-thigh level and crushed with fine forceps for 30 s. The skin incision was sutured, and mice were allowed to recover. The hind limb, contralateral to the lesion, served as control. Mice were treated with CBE (10 mg/kg/d) for 12 days, or with ambroxol (120-150 mg/kg/day) for 10 days, starting the day before surgery. Mice were followed on a daily basis. Body mass, muscle strength of individual hind limbs (mean of three tests was recorded), and locomotor profile (catwalk, Noldus) were analyzed.
Here, we sought to determine the effect of CBE on the motor recovery after nerve injury in non-transgenic mice. CBE was administrated on a daily basis (10 mg/kg/day), from […] until the end of the study, 12 days after injury.

The test system of data set [4] is muscle and spinal transcriptomes of SOD1 mice. In words: Muscle and spinal transcriptomes of SOD1 mice after CBE treatment (GO biological functions of restored genes). The class given is in vivo. The settings on record: spinal cord and muscle.
For data set [5], the system named is non-transgenic mice. As to conditions: mouse, in vivo.
Data set [6] has as its system co-culture of spinal explants and myoblasts. The data set can be described thus: Co-culture of spinal explants and myoblasts: neurite network / area of innervation. The class given is cell-based. As to conditions: ambroxol 100 μM in culture medium. Here is the method:
We next sought to determine whether another inhibitor of GlcCer degradation could support axonal plasticity and improve the phenotype of SOD1 mice. We used ambroxol, which is an inhibitor of GBA2 activity (Narita, A. et al. Ambroxol chaperone therapy for neuronopathic Gaucher disease: A pilot study. Ann. Clin. Transl. Neurol. 3, 200-215 (2016)). First, ambroxol (100 μM) was added to the culture medium of a co-culture of spinal explants and myoblasts. […] Next, ambroxol was given per os to SOD1 mice (120-150 mg/kg/day) from day 75 to day 95. […] In a second cohort of mice, the treatment was initiated at disease onset to study ambroxol's effect on late disease stage and survival. […] Next, ambroxol was given to mice subjected to sciatic nerve injury in order to determine its effects on peripheral nerve regeneration.

[7] abbreviates: CBE 10 mg/kg/day, 12 days after injury.
Setting [8] is: CBE 10 mg/kg/day, until 12 days after injury, vs placebo.
Where [9] appears, read: ambroxol, second cohort, treatment initiated at disease onset.
Where [10] appears, read: ambroxol 120-150 mg/kg/day for 10 days.

We go through 2 compounds from patent US12083091B2, “Inhibitors of glucosylceramide degradation in the treatment of diseases of the motor units” (priority 2016, dated 2024).

`OC1C(O)C(O)C2OC2C1O` (centres unmarked) [CBE, 1,2-anhydro-myo-inositol]: the “GCase activity in the spinal cord” value in data set [1] is listed as “decrease”. The “fibrillation events (electromyogram), sign of muscle denervation, vs SOD1 placebo group” value in data set [2] (CBE 10 mg/kg/day i.p., 95 days of age) was “less frequently detected”. In addition, the “number of fully innervated NMJs” value in data set [2] (CBE 10 mg/kg/day i.p., 95 days of age, tibialis anterior) was “comparable to wild type and significantly higher to SOD1 mice receiving the placebo”. Also, the “loss of large motor neurons in lumbar spinal cord compared to wild type” value in data set [2] (CBE 10 mg/kg/day i.p., 95 days of age, placebo SOD1 almost 60% loss) turned out to be 30%. Further, the “presence of axonal GM1a at presynaptic axons of NMJs” value in data set [2] (CBE 10 mg/kg/day i.p., SOD1 mice) is given as “clearly detectable”. Besides, the “development of locomotor impairments (average speed, stride length, paw swing; catwalk)” value in data set [2] (CBE 10 mg/kg/day i.p., SOD1 mice at 95 days of age) is “completely prevented”. Moreover, in data set [2] (CBE 10 mg/kg/day i.p., from 75 to 95 days of age), the “delay of disease onset (onset of muscle strength loss) compared to the placebo group” value was found to be 6 days. In addition, the “astrocyte activation (GFAP staining fluorescence intensity)” value in data set [2] (CBE 10 mg/kg/day i.p., spinal cord ventral horn) is on record as “no influence”. In data set [3] (setting [7]), the “locomotor profile of the injured paw (contact area, hindlimb step cycle)” value is reported as “closer to the contralateral side” and the “muscle fibrillation at sacrifice” value is listed as “less muscle fibrillation”. In data set [3] (setting [8]), the “muscle strength recovery after sciatic nerve injury” value was “occurred faster, by several days” and the “time to toe spreading after sciatic nerve injury” value is reported as “occurred faster, by several days”. Besides, the “global transcriptomic deregulations in SOD1 mice” value in data set [4] is given as “partially corrected”. In data set [5], the “loss of motor function in non-transgenic mice” value is “without inducing loss of motor function”; the “side effects (body mass and muscle strength evolution upon treatment)” value is listed as “does not induce side effects”.

For the compound `Nc1c(Br)cc(Br)cc1CN[C@H]1CC[C@H](O)CC1` [ambroxol, trans-4-(2-Amino-3,5-dibrombenzylamino)-cyclohexanol], in data set [2] (ambroxol 120-150 mg/kg/day per os, day 75 to 95, at 95 days of age), the “innervation status (NMJ integrity)” value is reported as “improved”. Further, the “delay of first loss of muscle strength (disease onset) compared to placebo” value in data set [2] (ambroxol 120-150 mg/kg/day per os, day 75 to day 95) was around 10 days. In addition, in data set [2] (setting [9]), the “improvement of total survival” value is reported as “more than 8 days” and the muscle strength entry is given as “significantly improved”. For the same compound, in data set [3] (setting [10]), the “muscle strength of ipsilateral hind paws after sciatic nerve injury” value is given as “significantly improved” and the “peripheral nerve regeneration after injury” value is reported as “significantly improves”. The correct muscle re-innervation entry in data set [3] (ambroxol 120-150 mg/kg/day, ten days after injury) is recorded as “significantly improves”. Besides, the “neurite network (total area of innervation) of co-culture” value in data set [6] is “improved”.
